Test results from patent US9365563B2, “TRPV1 antagonists including dihydroxy substituent and uses thereof” (Purdue Pharma L.P., priority 2007, dated 2016).

Legend:
[1] = Plasma concentration after administration to an animal; format: in vivo
[2] = Aqueous solubility; format: physicochemical
[3] = biological target: human TRPV1 (Homo sapiens (Human), UniProt Q8NER1); assay: Capsaicin-based assay, Protocol 2 (hCAP-CHO); format: cell-based; conditions: TRPV1/CHO cells, 100 nM capsaicin; mean ± SEM; read-out: TRPV1 IC50 Potency Human Capsaicin CHO (hCAP-CHO)
Description: The TRPV1/CHO cell line was generated as described below. […] The resulting PCR products were purified from agarose gels using Gel Band Purification Kit (GE Healthcare Bioscience) and were subcloned into pCR-Blunt vector (Invitrogen). The cloned cDNA was fully sequenced using a fluorescent dye-terminator reagent (BigDye Terminator ver3.1 Cycle Sequencing Kit, Applied Biosystems) and ABI Prism 3100 genetic analyzer (Applied Biosystems). The pCR-Blunt vector containing the hTRPV1 cDNA was subjected to restriction digestion with EcoR1. The restriction fragment was subcloned into expression vector pcDNA3.1(-) (Invitrogen) and named pcDNA3.1(-)-hVR1 plasmid. The sequence of the cDNA encoding TRPV1 is available at GenBank accession number AJ277028. […] The cells were transfected with the pcDNA3.1(-)-hVR1 plasmid using FuGENE6 (Roche) according to the manufacturer's protocol. 24 hr after transfection, neomycin-resistant cells were selected using 1 mg/mL G418 (Nacalai Tesque). […] The cells expressing hTRPV1 were cultured in the growth medium supplemented with 1 mg/mL G418. […] Subsequently, the cells were loaded by incubation in 0.1 mL of wash buffer containing Fluo-4 at 3 μM final concentration. After 1 hour, the cells were washed twice with 0.2 mL wash buffer and resuspended in 0.1 mL wash buffer. The plates were then transferred to a Fluorescence Imaging Plate Reader (Molecular Devices). Fluorescence intensity was monitored for 15 seconds to establish a baseline. […] The final concentration of the compound was adjusted to range from 100 μM to 1.5625 μM. […] Data were collected over the entire time course and analyzed using Excel and the curve-fitting formula GraphPad Prism.

Chain of human TRPV1 (Q8NER1 whole entry, the tested form may be a part): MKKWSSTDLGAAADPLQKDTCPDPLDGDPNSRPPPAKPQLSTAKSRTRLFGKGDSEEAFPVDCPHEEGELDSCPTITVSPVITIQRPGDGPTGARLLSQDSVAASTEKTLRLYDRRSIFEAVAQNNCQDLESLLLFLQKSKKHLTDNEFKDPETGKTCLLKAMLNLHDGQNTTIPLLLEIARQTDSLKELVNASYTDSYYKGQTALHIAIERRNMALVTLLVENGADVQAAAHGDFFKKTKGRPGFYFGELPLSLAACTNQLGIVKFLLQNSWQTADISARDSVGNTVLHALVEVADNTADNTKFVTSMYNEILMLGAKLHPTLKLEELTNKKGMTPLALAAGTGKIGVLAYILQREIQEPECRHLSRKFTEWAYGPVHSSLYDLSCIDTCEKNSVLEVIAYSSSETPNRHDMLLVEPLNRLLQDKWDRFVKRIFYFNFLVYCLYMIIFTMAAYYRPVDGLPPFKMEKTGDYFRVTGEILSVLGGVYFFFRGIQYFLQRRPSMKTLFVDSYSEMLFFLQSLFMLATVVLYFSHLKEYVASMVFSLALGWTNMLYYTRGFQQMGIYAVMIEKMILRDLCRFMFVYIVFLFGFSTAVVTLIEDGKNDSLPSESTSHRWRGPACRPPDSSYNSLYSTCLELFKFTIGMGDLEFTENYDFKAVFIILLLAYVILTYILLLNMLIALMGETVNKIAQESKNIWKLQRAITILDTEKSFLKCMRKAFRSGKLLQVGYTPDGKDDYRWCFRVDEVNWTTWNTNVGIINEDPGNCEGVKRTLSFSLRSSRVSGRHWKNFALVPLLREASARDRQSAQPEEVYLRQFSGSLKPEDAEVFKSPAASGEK

SMILES | aqueous solubility at pH 1.2 [2] [μM] | aqueous solubility at pH 6.8 [2] [μM] | other results
O=C(Nc1ccc(C(F)(F)F)cc1)N1CC=C(c2ncccc2Cl)CC1 [Compound 200] | < 0.1 | < 0.1 | time to maximum plasma concentration after administration ([1]; animal plasma): 3.1 h; aqueous solubility at pH 6.8 (in words) [2]: insoluble
O=C(Nc1ccc(C(F)(F)F)cc1)N1CCC(F)(c2ncccc2Cl)CC1 [Compound 203] | – | – | aqueous solubility at pH 6.8 (in words) [2]: insoluble
O=C(Nc1ccc(C(F)(F)F)cc1)N1CCC(F)(c2ncccc2F)CC1 [Compound 207] | – | – | aqueous solubility at pH 6.8 (in words) [2]: insoluble
O=C(Nc1ccc(C(F)(F)F)cc1)N1CC=C(c2ncccc2F)CC1 [Compound 208] | – | – | aqueous solubility at pH 6.8 (in words) [2]: insoluble
O=C(Nc1ccc(C(F)(F)F)c(F)c1)N1CCC(F)(c2ncccc2Cl)CC1 [Compound 209] | 9.3 | 1.0 | –
O=C(Nc1ccc(S(=O)(=O)C(F)(F)F)cc1)N1CCC(F)(c2ncccc2Cl)CC1 [Compound 210] | 2.0 | 0.4 | –
O=C(Nc1ccc(OC(F)(F)F)cc1)N1CCC(F)(c2ncccc2Cl)CC1 [Compound 211] | 1.3 | 0.4 | –
O=C(Nc1ccc(C(F)(F)F)c(F)c1)N1CCC(F)(c2ncccc2F)CC1 [Compound 212] | 10.3 | 1.9 | –
O=C(Nc1ccc(C(F)(F)F)c(F)c1)N1CC=C(c2ncccc2Cl)CC1 [Compound 213] | 39.6 | 0.8 | –
O=C(Nc1ccc(OC(F)(F)F)cc1)N1CC=C(c2ncccc2Cl)CC1 [Compound 214] | > 50 | 1.8 | –
O=C(Nc1ccc(C(F)(F)F)c(Cl)c1)N1CC=C(c2ncccc2F)CC1 [Compound 215] | 9.6 | 0.6 | –
O=C(Nc1ccc(OC(F)(F)F)cc1)N1CCC(F)(c2ncc([C@H](O)CO)cc2Cl)CC1 [Compound C1] | > 50 | 15.7 | –
O=C1C=C(c2ncc([C@H](O)CO)cc2Cl)CCN1C(=O)Nc1ccc(C(F)(F)F)cn1 [Compound C6] | – | – | IC50 [3]: > 25000 nM
O=C(Nc1ccc(OC(F)(F)F)c(-c2ccccc2)c1)N1CC=C(c2ncc(CO)cc2Cl)CC1 [Compound D3] | – | – | IC50 [3]: 565 ± 58.6 nM
CC(C)(C)c1ccc(NC(=O)N2CC=C(c3ncc([C@@H](O)CO)cc3Cl)CC2)cc1 [Compound E1] | – | – | IC50 [3]: 18.5 ± 4.9 nM
O=C(Nc1ccc(OC(F)(F)F)cc1)N1CC=C(c2ncc([C@H](O)CO)cc2Cl)CC1 [Compound E2] | > 50 | > 50 | –
O=C(Nc1ccc(C(F)(F)F)c(F)c1)N1CCC(F)(c2ncc([C@H](O)CO)cc2Cl)CC1 [Compound F1] | > 50 | 22.6 | –

SMILES | aqueous solubility at pH 1.2 [2] [μM] | aqueous solubility at pH 6.8 [2] [μM] | other results
CCOC(=O)c1cnc(C2=CCN(C(=O)Nc3ccc(C(F)(F)F)cc3)CC2)c(Cl)c1 [Compound F2] | 1.0 | 3.0 | –
COC(=O)Cc1cnc(C2=CCN(C(=O)Nc3ccc(C(F)(F)F)cc3)CC2)c(Cl)c1 [Compound F6] | > 50 | 9.2 | –
CC(O)c1cnc(C2=CCN(C(=O)Nc3ccc(C(F)(F)F)cc3)CC2)c(Cl)c1 (stereo not drawn) [Compound G2] | > 50 | 38.2 | –
O=C(O)Cc1cnc(C2=CCN(C(=O)Nc3ccc(C(F)(F)F)cc3)CC2)c(Cl)c1 [Compound G6] | > 50 | > 50 | –
O=C(Nc1ccc(S(=O)(=O)C(F)(F)F)cc1)N1CCC(F)(c2ncc([C@H](O)CO)cc2Cl)CC1 [Compound H1] | > 50 | > 50 | –
CN(C)Cc1cnc(C2=CCN(C(=O)Nc3ccc(C(F)(F)F)cc3)CC2)c(Cl)c1 [Compound H6] | > 50 | > 50 | –
O=C(Nc1ccc(C(F)(F)F)cc1)N1CC=C(c2ncc(CO)cc2Cl)CC1 [Compound J2] | > 50 | > 50 | –
CC(C)S(=O)(=O)c1ccc(NC(=O)N2CC=C(c3ncc(CO)cc3Cl)CC2)cc1 [Compound K3] | – | – | IC50 [3]: > 10000 nM
O=C(O)c1cnc(C2=CCN(C(=O)Nc3ccc(C(F)(F)F)cc3)CC2)c(Cl)c1 [Compound M5] | – | – | IC50 [3]: > 25000 nM
O=C(Nc1ccc(C(F)(F)F)cc1)N1CCC(F)(c2ncc([C@H](O)CO)cc2F)CC1 [Compound N6] | > 50 | > 50 | –
O=C(Nc1ccc(C(F)(F)F)c(Cl)c1)N1CCC(F)(c2ncc([C@@H](O)CO)cc2F)CC1 [Compound P5] | – | – | IC50 [3]: 49.5 nM
O=C(Nc1ccc(C(F)(F)F)c(Cl)c1)N1CCC(F)(c2ncc([C@H](O)CO)cc2F)CC1 [Compound Q3] | – | – | IC50 [3]: 14.3 ± 1.3 nM
O=C(Nc1ccc(C(F)(F)F)c(F)c1)N1CC=C(c2ncc([C@H](O)CO)cc2Cl)CC1 [Compound S1, (S)-3-Chloro-5-(1,2-dihydroxy-ethyl)-3′,6′-dihydro-2′H-[2,4]bipyridinyl-1′-carboxylic acid (3-fluoro-4-trifluoromethyl-phenyl)amide] | > 50 | > 50 | –
O=C(Nc1ccc(C(F)(F)F)cc1)N1CC=C(c2ncc([C@H](O)CO)cc2F)CC1 [Compound U1] | > 50 | > 50 | –
O=C(Nc1ccc(C(F)(F)F)c(Cl)c1)N1CC=C(c2ncc([C@H](O)CO)cc2F)CC1 [Compound U3] | > 50 | 26.4 | –
O=C(Nc1ccc(C(F)(F)F)c(F)c1)N1CCC(F)(c2ncc([C@H](O)CO)cc2F)CC1 [Compound Y3] | > 50 | 17.4 | –
O=C(Nc1ccc(C(F)(F)F)cc1)N1CC=C(c2ncc([C@H](O)CO)cc2Cl)CC1 [Compound Z1, (S)-3-Chloro-5-(1,2-dihydroxy-ethyl)-3′,6′-dihydro-2′H-[2,4]bipyridinyl-1′-carboxylic acid (4-trifluoromethyl-phenyl)amide] | > 50 | > 50 | time to maximum plasma concentration after administration ([1]; animal plasma): 2.5 h; maximum plasma concentration relative to the maximum for compound 200 ([1]; animal plasma, for a given dose): 2.5 times; plasma concentration up to 24 h compared with compound 200 ([1]; up to 24 h): consistently greater
